Biological target: T1, haematopoietic prostaglandin D synthase (H-PGDS) (Homo sapiens, UniProt O60760)
T1 construct: Full length human H-PGDS cDNA (Invitrogen Ultimate ORF 10H13026) was amplified by PCR; 6-His (N); TEV protease cleavage site (N); made in house; host or cells: E. coli BL21 (DE3*), vector pET22b+
Test: H-PGDS RapidFire high throughput mass spectrometry assay (conversion of PGH2 to PGD2)
Format: biochemical
Settings: 10 nM H-PGDS, PGH2 formed in situ by COX-2 from arachidonic acid; read-out: Potency Range (mean pIC50) (converted)
How it was run: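 RapidFire SPE–MS read-out calculated percent conversion from relative PGD2 and PGF2α (substrate surrogate) levels. Recombinant full-length human H-PGDS (His-tag, E. coli) turned over PGH2, produced in situ at ˜10 μM by human COX-2 (FLAG-tag, Sf9 cells) acting on arachidonic acid.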

T1 sequence (O60760 whole entry): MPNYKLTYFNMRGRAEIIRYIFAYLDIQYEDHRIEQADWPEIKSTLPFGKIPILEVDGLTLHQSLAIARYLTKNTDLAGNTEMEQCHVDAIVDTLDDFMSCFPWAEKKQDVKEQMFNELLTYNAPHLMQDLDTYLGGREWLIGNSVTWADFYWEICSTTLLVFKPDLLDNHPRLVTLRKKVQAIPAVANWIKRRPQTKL

Compound | IC50 [µM]
O=C(Nc1nccs1)[C@H]1C[C@H](Oc2cc(F)cc3cccnc23)C1 [Example 294, (trans)-3-((6-Fluoroquinolin-8-yl)oxy)-N-(thiazol-2-yl)cyclobutanecarboxamide] | 0.01 to 0.0794
O=C(NC1CCS(=O)(=O)C1)[C@H]1C[C@H](Oc2cccc3scnc23)C1 (mixture of isomers) [Example 254, Racemic (trans)-3-(Benzo[d]thiazol-4-yloxy)-N-(1,1-dioxidotetrahydrothiophen-3-yl)cyclobutanecarboxamide] | 0.1 to 1
O=C(NC1CCN(c2ncc(F)cn2)CC1)N1CC(Oc2cc(F)cc3scnc23)C1 [Example 118, 3-((6-Fluorobenzo[d]thiazol-4-yl)oxy)-N-(1-(5-fluoropyrimidin-2-yl)piperidin-4-yl)azetidine-1-carboxamide] | 0.01 to 0.0794
CC(C)(O)[C@H]1CC[C@H](NC(=O)[C@H]2C[C@H](Oc3cccn4ccnc34)C2)CC1 [Example 298, (trans)-N-((trans)-4-(2-Hydroxypropan-2-yl)cyclohexyl)-3-(imidazo[1,2-a]pyridin-8-yloxy)cyclobutanecarboxamide] | 0.1 to 1
CC1C(Oc2cc(F)cc3scnc23)CN1C(=O)N[C@H]1CC[C@H](C(C)(C)O)CC1 (mixture of isomers) [Example 236, Racemic 3-((6-Fluorobenzo[d]thiazol-4-yl)oxy)-N-((trans)-4-(2-hydroxypropan-2-yl)cyclohexyl)-2-methylazetidine-1-carboxamide] | 0.01 to 0.0794
CS(=O)(=O)c1ccc(NC(=O)N2CC(Oc3cccc4scnc34)C2)c(F)c1 [Example 308, 3-(Benzo[d]thiazol-4-yloxy)-N-(2-fluoro-4-(methylsulfonyl)phenyl)azetidine-1-carboxamide] | 0.01 to 0.0794
CC(C)(O)C1CC2(CC(NC(=O)[C@H]3C[C@H](Oc4cccc5scnc45)C3)C2)C1 (mixture of isomers) [Example 83, Racemic (trans)-3-(Benzo[d]thiazol-4-yloxy)-N-(6-(2-hydroxypropan-2-yl)spiro[3.3]heptan-2-yl)cyclobutanecarboxamide] | 0.01 to 0.0794
CC(=O)c1csc(NC(=O)[C@H]2C[C@H](Oc3cccc4cccnc34)C2)n1 [Example 186, trans-N-(4-Acetylthiazol-2-yl)-3-(quinolin-8-yloxy)cyclobutanecarboxamide] | 0.01 to 0.0794
Cc1nc(NC(=O)[C@H]2C[C@H](Oc3cccc4cccnc34)C2)oc1C [Example 175, (trans)-N-(4,5-Dimethyloxazol-2-yl)-3-(quinolin-8-yloxy)cyclobutanecarboxamide] | 0.01 to 0.0794
COc1ccccc1O[C@H]1C[C@H](C(=O)N[C@H]2CC[C@H](C(C)(C)O)CC2)C1 [Example 284, (trans)-N-((trans)-4-(2-hydroxypropan-2-yl)cyclohexyl)-3-(2-methoxyphenoxy)cyclobutanecarboxamide] | 0.01 to 0.0794
O=C(NC1CCCCC1)N[C@H]1C[C@H](NC(=O)[C@H]2C[C@H](Oc3cccc4scnc34)C2)C1 [Example 67, (trans)-3-(Benzo[d]thiazol-4-yloxy)-N-((trans)-3-(3-cyclohexylureido)cyclobutyl)cyclobutanecarboxamide] | 0.1 to 1
Cc1nc(NC(=O)N2CC(Oc3cccc4scnc34)C2)ns1 [Example 336, 3-(Benzo[d]thiazol-4-yloxy)-N-(5-methyl-1,2,4-thiadiazol-3-yl)azetidine-1-carboxamide] | 0.01 to 0.0794
O=C(NC1CN(c2ccnc(Cl)n2)C1)N1CC(Oc2cc(F)cc3scnc23)C1 [Example 130, N-(1-(2-Chloropyrimidin-4-yl)azetidin-3-yl)-3-((6-fluorobenzo[d]thiazol-4-yl)oxy)azetidine-1-carboxamide] | 0.01 to 0.0794
O=C(NC1CN(c2nccc(Cl)n2)C1)[C@H]1C[C@H](Oc2cccc3scnc23)C1 [Example 74, (trans)-3-(Benzo[d]thiazol-4-yloxy)-N-(1-(4-chloropyrimidin-2-yl)azetidin-3-yl)cyclobutanecarboxamide] | 0.01 to 0.0794
